Broadly, the EC50 is the concentration that produces a half-maximal response.

Each structure is given as a SMILES string. Like-named read-outs stand apart in the source and are kept apart here.

The values that follow come from patent publication US5958907A, “Pharmaceutical compositions and uses of inorganic pyrophosphates” (The University of Iowa Research Foundation, priority 1997, dated 1999).

The test system of data set [1] is purinergic receptors in the airway epithelium. Particulars: in vitro; cited from earlier work.
Data set [2] concerns the target CFTR channel (Homo sapiens, UniProt P13569). Particulars: 5 mM PPi. How it is done:
Maximum likelihood analysis and kinetic modeling were performed as described (Winter, M. C. et al. (1994) Biophys. J. 66:1398-1403). Briefly, unfiltered single channel data were digitized on a microcomputer (Apple Macintosh, Apple Computer, Inc., Cupertine, Calif.) equipped with a multifunctional data acquisition board (NB-MIO-16) and LabVIEW 2 software (National Instruments, Austin, Tex.) at 5 kHz following filtering with an 8-pole Bessel filter (Frequency Devices Inc., Haverhill, Mass.) at a comer frequency of 1 kHz with subsequent digital filtering at 500 Hz. Previous work has shown that a linear three state model (C1 .rarw.→C2 .rarw.→O) best describes the kinetics of CFTR channel activity (Winter, M. C. et al. (1994) Biophys. J. 66:1398-1403). The Maple 5 symbolic algebra program (Waterloo Maple Software, Waterloo, Canada) was used to derive the open and closed time probability density functions for this model by solving the matrix equations in terms of the rate constants. The resulting equations were used in LabVIEW 2 to determine the set of rate constants which yielded the maximum likelihood for the open and closed times observed with different experimental interventions.
It has been previously shown that the activity of single phosphorylated CFTR channels can be described by a linear three state model (Winter, M. C. et al. (1994) Biophys. J. 66:1398-1403), and this model has been used to describe how ATP, ADP, and inorganic phosphate alter the rate constants which describe transitions between states (Carson, M. R. et al., 1994 Biophys. J (In Press); Winter, M. C. et al., 1994 Biophys. J. 66:1398-1403). […] The rate constants (β1, β2, α1, and α2) describe the rate of transition between each state.

Data set [3] concerns the target T1, CFTR Cl^- channel (Homo sapiens, UniProt P13569).
Data set [4] deals with CFTR-ΔF508. Particulars: 5 mM PPi, 75 nM PKA, 0.3 mM ATP.
The test system of data set [5] is CFTR. Particulars: artificial lipid bilayers; cited from earlier work.
In data set [6] the test system is human CFTR. Particulars: [α-32P]8-N3ATP 30 αM, PPi in mM, 60 s UV irradiation; relative to control without PPi.
Experimental: Photolabeling of membrane-associated CFTR was performed as previously described (Travis, S. M. et al. (1993) J. Biol. Chem. 268:15336-15339). […] Membranes were prepared by differential centrifugation and resuspended in 20 mM HEPES, pH 7.5, 50 mM NaCl, 3 mM MgSO4, with 2 μg/ml each of leupeptin, aprotinin, and pepstatin. Membrane-associated CFTR was phosphorylated prior to photolabeling by incubation with 100 nM PKA and 0.1 mM ATP in buffer containing 10 m MgCl2 and 50 mM 1,4-piperazine diethane sulfonic acid, pH 6.8 for 20 min at 30° C., then diluted in 12 volumes buffer containing 20 mM tris(hydroxymethyl)aminomethane, pH 7.5, 0.2 mM EGTA and 1 μM calyculin A. Membranes were collected by centrifugation and resuspended at a concentration of 2.5 mg protein/ml in the same buffer.
Photolabeling was performed by preincubating membranes (50 μg membrane protein/sample) on ice with [α-^32 P]8-N3ATP (30 αM, 6-12 Ci/mmol) and PPi (in mM). After 60 s UV irradiation, CFTR was solubilized and immunoprecipitated as described (Travis, S. M. et al. (1993) J. Biol. Chem. 268:15336-15339) using antibodies raised against the R domain (M13-1, 0.3 μg/sample) and against the C terminus (M1-4, 10 μg/sample). Immunocomplexes were analyzed by SDS-PAGE and incorporation of [α-^32 P]8-N3ATP was quantitated with an AMBIS radioanalytic imaging system (AMBIS Systems, Inc., San Diego, Calif.).
In data set [7] the target is T1, CFTR Cl^- channel. Particulars: external addition of 5 mM PPi, n=4. How it is done:
To determine if inorganic pyrophosphate (PPi) would alter CFTR Cl^- channel activity, 5 mM PPi was added to an excised, inside-out membrane patch containing many CFTR channels which had been phosphorylated by PKA.

Data set [8] has as its target T2, wild-type CFTR (Homo sapiens, UniProt P13569).
T2 construct: excised inside-out patches with ATP and PKA
Nature of the data set: Single channel excised inside-out patch-clamp and burst analysis, wild-type CFTR. It counts as cell-based. Particulars: for frequency of prolonged bursts compared with PPi / bursts of activity: PPi analogs at 5 mM; for bursts of activity: C127 cell patches with a single active channel. A general note: The patch-clamp technique gives a direct electrical read-out from membranes.

Data set [9] addresses endogenous CFTR in the apical membrane of T-84 intestinal epithelial monolayers (Homo sapiens, UniProt P13569).
The conditions of data set [10]: cited from earlier work.
Data set [11] concerns CFTR. Particulars: cited from earlier work.
Data set [12] relates to sodium channels. Particulars: aerosolized, initial results; cited from earlier work.

endogenous CFTR in the apical membrane of T-84 intestinal epithelial monolayers, sequence (P13569 whole entry): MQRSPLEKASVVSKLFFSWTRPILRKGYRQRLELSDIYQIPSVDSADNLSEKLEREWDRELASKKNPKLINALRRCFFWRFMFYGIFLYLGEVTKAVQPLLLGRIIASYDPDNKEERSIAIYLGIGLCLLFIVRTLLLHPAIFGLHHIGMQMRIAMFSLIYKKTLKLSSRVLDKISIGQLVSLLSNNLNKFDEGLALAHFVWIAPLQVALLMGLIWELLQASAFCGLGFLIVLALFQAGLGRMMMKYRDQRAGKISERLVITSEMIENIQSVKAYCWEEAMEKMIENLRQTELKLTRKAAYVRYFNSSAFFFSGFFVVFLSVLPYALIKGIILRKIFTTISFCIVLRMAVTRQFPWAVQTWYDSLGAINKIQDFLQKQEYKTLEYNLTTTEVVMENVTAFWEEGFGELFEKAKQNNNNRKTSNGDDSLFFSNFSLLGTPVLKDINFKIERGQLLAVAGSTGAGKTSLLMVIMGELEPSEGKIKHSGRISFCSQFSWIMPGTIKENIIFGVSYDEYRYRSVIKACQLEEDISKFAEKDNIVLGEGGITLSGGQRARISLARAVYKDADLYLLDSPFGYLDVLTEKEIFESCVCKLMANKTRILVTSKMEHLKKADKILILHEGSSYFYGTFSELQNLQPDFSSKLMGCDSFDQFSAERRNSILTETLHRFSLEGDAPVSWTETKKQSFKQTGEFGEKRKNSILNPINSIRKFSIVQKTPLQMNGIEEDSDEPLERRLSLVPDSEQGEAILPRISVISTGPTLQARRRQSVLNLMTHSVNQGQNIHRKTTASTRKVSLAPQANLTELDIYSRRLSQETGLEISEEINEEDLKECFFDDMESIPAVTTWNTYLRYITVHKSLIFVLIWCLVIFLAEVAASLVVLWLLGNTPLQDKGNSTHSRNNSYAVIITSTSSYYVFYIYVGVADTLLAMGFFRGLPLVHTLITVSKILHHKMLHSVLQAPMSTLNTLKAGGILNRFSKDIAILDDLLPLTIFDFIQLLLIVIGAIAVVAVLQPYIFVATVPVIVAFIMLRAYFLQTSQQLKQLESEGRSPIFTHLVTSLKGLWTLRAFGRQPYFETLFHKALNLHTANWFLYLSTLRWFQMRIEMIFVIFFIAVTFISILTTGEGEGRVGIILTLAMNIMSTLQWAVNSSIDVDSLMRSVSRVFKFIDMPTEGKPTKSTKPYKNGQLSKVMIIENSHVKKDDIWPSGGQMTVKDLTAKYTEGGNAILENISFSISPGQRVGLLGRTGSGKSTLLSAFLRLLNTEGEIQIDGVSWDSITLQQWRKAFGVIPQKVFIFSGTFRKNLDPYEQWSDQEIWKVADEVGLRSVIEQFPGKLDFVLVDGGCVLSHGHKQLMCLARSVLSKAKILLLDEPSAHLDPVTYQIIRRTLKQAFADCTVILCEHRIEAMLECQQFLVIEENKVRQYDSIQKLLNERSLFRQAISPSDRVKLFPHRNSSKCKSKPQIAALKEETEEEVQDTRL
T1 sequence (P13569 whole entry): as above
T2 sequence (P13569 whole entry): as above
CFTR channel, sequence (P13569 whole entry): as above

For the molecule `O=c1ccn([C@@H]2O[C@H](COP(=O)(O)OP(=O)(O)OP(=O)(O)O)[C@@H](O)[C@H]2O)c(=O)[nH]1` [UTP], the chloride secretion entry in data set [1] is on record as “can stimulate chloride secretion”.
`O=P([O-])([O-])OP(=O)([O-])[O-].[Na+].[Na+].[Na+].[Na+]` [PPi, Sodium pyrophosphate]: in data set [2] (0.3 mM ATP, 75 nM PKA), the “decrease of rate constant α2” value is reported as 37%, the “rate constant β1 (transition from long closed state C1 to bursting state)” value is on record as “increased β1” and the “rate constant β2” value is “did not alter β2”. Also, in data set [2] (0.3 mM ATP, 75 nM PKA, four single-channel patches), the “rate constant α1 (rate of leaving the bursting mode)” value is reported as “six-fold decrease”. Moreover, the “change in Po within a burst” value in data set [2] (n=4, not significantly different) was under 5%. In addition, the Cl- current entry in data set [3] (5 mM PPi in the presence of 0.3 mM ATP, channels phosphorylated by PKA, cytosolic side) is “reversible increase”. For the same molecule, the Cl- current result in [3] (PPi in the absence of ATP) is “did not stimulate current”. The EC50 in data set [3] (read-out: apparent EC50 of stimulation of Cl- current, in the presence of ATP, PKA-phosphorylated channels) was about 500 µM. In data set [4] (before: 0.07±0.01, n=3), this molecule returned a Po of 0.21±0.022. In addition, the average burst duration in data set [4] (before: 125±19 ms, n=3) was found to be 1023 ± 330 ms. Besides, in data set [4] (n=3), the “increase of Po” value was “three-fold” and the “increase of average burst duration” value is “eight-fold”. Besides, the “stimulation of ΔF508 activity” value in data set [4] (n=5) is on record as “three-fold”. Further, the duration of bursts entry in data set [5] is “prolonged the duration of bursts”. Also, the “8-N3 ATP labeling of CFTR” value in [6] is given as “concentration-dependent increase”. Besides, the whole-cell currents result in data set [7] is recorded as “did not alter currents”. Besides, the “duration of the long closed states between bursts of activity” value in [8] (5 mM PPi, 0.3 mM ATP, 75 nM PKA) is “appeared to decrease the duration of the long closed states”. The “open state probability (Po)” value in data set [8] (5 mM PPi, 0.3 mM ATP, 75 nM PKA, before: 0.39±0.021, n=8, p<0.001) came out at 0.81±0.03. The molecule also came in with a mean burst duration in data set [8] (5 mM PPi, 0.3 mM ATP, 75 nM PKA, before: 175±6 ms, n=8, p<0.001) of 1568 ± 219 ms. Further, the “single channel current amplitude” value in data set [8] (after addition of 5 mM PPi, 0.3 mM ATP, 75 nM PKA, before: 0.90±0.05, n=8, p=0.812) is 0.91±0.02 pA. The “apical membrane Cl- current” value in data set [9] (1 or 5 mM PPi added to basolateral solution after cAMP, 1 mM ATP) was “further increase in current”. Further, the “apical membrane Cl- current” value in data set [9] (1 or 5 mM PPi in the absence of cAMP) is reported as “did not increase current above baseline levels”. Besides, the “time for current to decrease to baseline levels after removal of cAMP” value in [9] (in the continued presence of PPi) is recorded as at most 3 min.
In the case of `O=P(O)(O)CP(=O)(O)O` [PCP, Methylenediphosphonic acid], the “maintenance of calcaemia after initial treatment” value in data set [10] (daily oral administration of 1600 mg) is given as “calcaemia can be maintained”. Besides, the “efficacy in tumor-induced bone disease” value in data set [10] (one slow infusion of 600 mg) is listed as “shown efficacy”. In data set [8] (75 nM PKA, 0.3 mM ATP), the “frequency of prolonged bursts compared with PPi” value was “less frequent” and the bursts of activity result was “prolonged bursts of activity”. For the same molecule, the “effects on Po and average burst duration (channel activity)” value in data set [8] (nonhydrolyzable PPi analogs) is on record as “did not achieve statistical significance”.
Consider `Nc1ncnc2c1ncn2[C@@H]1O[C@H](COP(=O)(O)OP(=O)(O)NP(=O)(O)O)[C@@H](O)[C@H]1O` [AMP-PNP], for which the “binding affinity relative to ATP” value in [11] is recorded as “one twentieth”.
For `CC(O)(P(=O)(O)O)P(=O)(O)O` [etidronate, 1-hydroxyethylidenebisphosphonic acid, reference compound], in data set [10] (500 mg/day for 3 days), the “efficacy in tumor-induced bone disease” value was “shown efficacy”. Besides, in data set [8] (75 nM PKA, 0.3 mM ATP), the “frequency of prolonged bursts compared with PPi” value is recorded as “less frequent” and the bursts of activity result was “prolonged bursts of activity”.
For `Nc1ncnc2c1ncn2[C@@H]1O[C@H](COP(=O)(O)OP(=O)(O)OP(=O)(O)O)[C@@H](O)[C@H]1O` [ATP, Adenosine 5'-triphosphate], the chloride secretion result in [1] is “can stimulate chloride secretion”.
For `N=C(N)NC(=O)c1nc(Cl)c(N)nc1N` [amiloride], in [12], the “rate of disease progression, as measured by lung function tests” value is given as “slight change in the rate of disease progression” and the safety entry is recorded as “safe”.
